From patent US7235679B2, “Crystals of a vitamin D derivative and a method for the preparation thereof” (Chugai Seiyaku Kabushiki Kaisha, priority 1996, dated 2007)

How the values were obtained:
Type in all cases: physicochemical
[1] = Stability test of ED-71: purity measurement using reverse phase HPLC; details: for Purity Measurement Using Reverse Phase HPLC, ED-71 peak / Purity Measurement Using Reverse Phase HPLC, Other peaks / Purity Measurement Using Reverse Phase HPLC, Pre Form peak: 265 nm
Experimental: (§1) Amorphous and crystalline ED-71 compounds were tested for stability at 10, 25 and […]. To estimate the stability, HPLC quantitative assay and absorbance and purity measurements were utilized. The purity was expressed as peak area ratio in percentage in HPLC (% P.A.R.). The test was carried out by using the following procedures:
(§2) About 2 mg portions of each of the amorphous and crystalline samples are precisely weighed into transparent 10 ml test tubes each having screw cap, individually.
(§3) The test tubes are purged with argon using a vacuum desiccator and a glove box. This purging procedure is not applied to the test tubes indicated as “1 M (air)” in the tables below.
(§4) The test tubes in groups are fixed in thermostatic baths which are respectively controlled at the above temperatures and allowed to stand in the dark. After one (1 W) or two (2 W) weeks or one month (1 M), the test tubes are removed from the baths and subjected to the following assay and measurements:
HPLC is carried out using 25 μl of the sample solution as prepared in “HPLC quantitative assay” above. • HPLC conditions used: • Column: Inertsil ODS-2 (5×250 mm) • Mobile phase: acetonitrile/water mixture (55/45) • Flow rate: 1 ml/min • Detection: at UV 265 and 220 nm.

[2] = Stability test of ED-71: HPLC quantitative assay (survivability)
Experimental: as §1, §2, §3, §4
5 ml of absolute ethanol is precisely added to the test tube to form a sample solution. 1 ml of the sample solution and 1 ml of an internal standard solution are both precisely added to another test tube and the resulting mixture is diluted with methylene chloride to give a whole volume of 20 ml. This diluted solution is designated solution 1. The internal standard solution is formed by dissolving 2-aminopyrimidine in methanol to a concentration of 0.6 mg/ml.
Next, both of 1 ml of another standard solution for quantitative assay which is formed by dissolving crystalline ED-71 in absolute ethanol to a concentration of 0.4 mg/ml and 1 ml of the internal standard solution are precisely added to another test tube and the resulting mixture is diluted with methylene chloride to give a whole volume of 20 ml. This diluted solution is designated solution 2.
HPLC is carried out using 20 μl of each of solutions 1 and 2. For each solution, an area ratio of the peak of ED-71 to the peak of the internal standard substance is determined from the HPLC data. The ED-71 content in the sample is determined from the ratio of the area ratio for solution 1 to that for solution 2.
Survivability (%) is determined by dividing the ED-71 content thus obtained by ED-71 content in the same sample but prior to the above treatment. • HPLC conditions used: • Column: YMC A-004SIL (4.6×300 mm) • Mobile phase: methylene chloride/methanol mixture (95/5) • Flow rate: 1 ml/min • Detection: at UV 265 nm. (3) Absorbance Measurement

[3] = Stability test of ED-71: absorbance measurement at 265 nm (E 1%); details: absorbance at 265 nm
Experimental: as §1, §2, §3, §4
1 ml of the sample solution as prepared in “HPLC quantitative assay” above is diluted with absolute ethanol to give a whole volume of 10 ml and this diluted solution is then measured for the absorbance at 265 nm using a ultraviolet spectrophotometer. The absorbance is converted into E 1% value which is derived from Lambert-Beer Law and the conversion is made according to the following equation: E1%=A/cb wherein A is absorbance, c is concentration in g/100 ml and b is length of optical path in cm across the test solution, which is commonly 1. (4) Purity Measurement

220 nm (%), ED-71 peak ([1]; 10° C., 1 M (air), dark): 92.07%
220 nm (%), Other peaks ([1]; 10° C., 1 M (air), dark): 5.88%
220 nm (%), Pre Form peak ([1]; 10° C., 1 M (air), dark): 2.04%
220 nm (%), ED-71 peak ([1]; 10° C., 1 M, argon, dark): 92.85%
220 nm (%), Other peaks ([1]; 10° C., 1 M, argon, dark): 5.13%
220 nm (%), Pre Form peak ([1]; 10° C., 1 M, argon, dark): 2.02%
220 nm (%), ED-71 peak ([1]; 10° C., 2 W, argon, dark): 92.85%
220 nm (%), Other peaks ([1]; 10° C., 2 W, argon, dark): 5.13%
220 nm (%), Pre Form peak ([1]; 10° C., 2 W, argon, dark): 2.02%
220 nm (%), ED-71 peak ([1]; 10° C., time 0): 93.95%
220 nm (%), Other peaks ([1]; 10° C., time 0): 4.70%
220 nm (%), Pre Form peak ([1]; 10° C., time 0): 1.37%
220 nm (%), ED-71 peak ([1]; 25° C., 1 W, argon, dark): 93.37%
220 nm (%), Other peaks ([1]; 25° C., 1 W, argon, dark): 5.13%
220 nm (%), Pre Form peak ([1]; 25° C., 1 W, argon, dark): 1.50%
220 nm (%), ED-71 peak ([1]; 25° C., 2 W, argon, dark): 92.39%
220 nm (%), Other peaks ([1]; 25° C., 2 W, argon, dark): 5.68%
220 nm (%), Pre Form peak ([1]; 25° C., 2 W, argon, dark): 1.93%
220 nm (%), ED-71 peak ([1]; 25° C., time 0): 93.95%
220 nm (%), Other peaks ([1]; 25° C., time 0): 4.70%
220 nm (%), Pre Form peak ([1]; 25° C., time 0): 1.37%
220 nm (%), ED-71 peak ([1]; 40° C., 1 W, argon, dark): 90.00%
220 nm (%), Other peaks ([1]; 40° C., 1 W, argon, dark): 7.71%
220 nm (%), Pre Form peak ([1]; 40° C., 1 W, argon, dark): 2.29%
220 nm (%), ED-71 peak ([1]; 40° C., 2 W, argon, dark): 87.40%
220 nm (%), Other peaks ([1]; 40° C., 2 W, argon, dark): 9.72%
220 nm (%), Pre Form peak ([1]; 40° C., 2 W, argon, dark): 2.88%
220 nm (%), ED-71 peak ([1]; 40° C., time 0): 93.95%
220 nm (%), Other peaks ([1]; 40° C., time 0): 4.70%
220 nm (%), Pre Form peak ([1]; 40° C., time 0): 1.37%
Purity Measurement Using Reverse Phase HPLC, ED-71 peak ([1]; 10° C., 1 M (air), dark): 94.11 % P.A.R
Purity Measurement Using Reverse Phase HPLC, Other peaks ([1]; 10° C., 1 M (air), dark): 4.07 % P.A.R
Purity Measurement Using Reverse Phase HPLC, Pre Form peak ([1]; 10° C., 1 M (air), dark): 1.82 % P.A.R
Purity Measurement Using Reverse Phase HPLC, ED-71 peak ([1]; 10° C., 1 M, argon, dark): 93.05 % P.A.R
Purity Measurement Using Reverse Phase HPLC, Other peaks ([1]; 10° C., 1 M, argon, dark): 5.07 % P.A.R
Purity Measurement Using Reverse Phase HPLC, Pre Form peak ([1]; 10° C., 1 M, argon, dark): 1.88 % P.A.R
Purity Measurement Using Reverse Phase HPLC, ED-71 peak ([1]; 10° C., 2 W, argon, dark): 94.48 % P.A.R
Purity Measurement Using Reverse Phase HPLC, Other peaks ([1]; 10° C., 2 W, argon, dark): 3.77 % P.A.R
Purity Measurement Using Reverse Phase HPLC, Pre Form peak ([1]; 10° C., 2 W, argon, dark): 1.75 % P.A.R
Purity Measurement Using Reverse Phase HPLC, ED-71 peak ([1]; 10° C., time 0): 95.38 % P.A.R
Purity Measurement Using Reverse Phase HPLC, Other peaks ([1]; 10° C., time 0): 3.47 % P.A.R
Purity Measurement Using Reverse Phase HPLC, Pre Form peak ([1]; 10° C., time 0): 1.16 % P.A.R
Purity Measurement Using Reverse Phase HPLC, ED-71 peak ([1]; 25° C., 1 W, argon, dark): 94.78 % P.A.R
Purity Measurement Using Reverse Phase HPLC, Other peaks ([1]; 25° C., 1 W, argon, dark): 3.95 % P.A.R
Purity Measurement Using Reverse Phase HPLC, Pre Form peak ([1]; 25° C., 1 W, argon, dark): 1.27 % P.A.R
Purity Measurement Using Reverse Phase HPLC, ED-71 peak ([1]; 25° C., 2 W, argon, dark): 94.20 % P.A.R
Purity Measurement Using Reverse Phase HPLC, Other peaks ([1]; 25° C., 2 W, argon, dark): 4.08 % P.A.R
Purity Measurement Using Reverse Phase HPLC, Pre Form peak ([1]; 25° C., 2 W, argon, dark): 1.72 % P.A.R
Purity Measurement Using Reverse Phase HPLC, ED-71 peak ([1]; 25° C., time 0): 95.38 % P.A.R
Purity Measurement Using Reverse Phase HPLC, Other peaks ([1]; 25° C., time 0): 3.47 % P.A.R
Purity Measurement Using Reverse Phase HPLC, Pre Form peak ([1]; 25° C., time 0): 1.16 % P.A.R
Purity Measurement Using Reverse Phase HPLC, ED-71 peak ([1]; 40° C., 1 W, argon, dark): 92.47 % P.A.R
Purity Measurement Using Reverse Phase HPLC, Other peaks ([1]; 40° C., 1 W, argon, dark): 5.55 % P.A.R
Purity Measurement Using Reverse Phase HPLC, Pre Form peak ([1]; 40° C., 1 W, argon, dark): 1.98 % P.A.R
Purity Measurement Using Reverse Phase HPLC, ED-71 peak ([1]; 40° C., 2 W, argon, dark): 90.68 % P.A.R
Purity Measurement Using Reverse Phase HPLC, Other peaks ([1]; 40° C., 2 W, argon, dark): 6.78 % P.A.R
Purity Measurement Using Reverse Phase HPLC, Pre Form peak ([1]; 40° C., 2 W, argon, dark): 2.53 % P.A.R
Purity Measurement Using Reverse Phase HPLC, ED-71 peak ([1]; 40° C., time 0): 95.38 % P.A.R
Purity Measurement Using Reverse Phase HPLC, Other peaks ([1]; 40° C., time 0): 3.47 % P.A.R
Purity Measurement Using Reverse Phase HPLC, Pre Form peak ([1]; 40° C., time 0): 1.16 % P.A.R
E 1% ([3]; 10° C., 1 M (air), dark): 316.3
E 1% ([3]; 10° C., 1 M, argon, dark): 320.5
E 1% ([3]; 10° C., 2 W, argon, dark): 324.9
E 1% ([3]; 10° C., time 0): 327.5
E 1% ([3]; 25° C., 1 W, argon, dark): 323.0
E 1% ([3]; 25° C., 2 W, argon, dark): 316.9
E 1% ([3]; 25° C., time 0): 327.5
E 1% ([3]; 40° C., 1 W, argon, dark): 313.2
E 1% ([3]; 40° C., 2 W, argon, dark): 304.0
E 1% ([3]; 40° C., time 0): 327.5
SMILES: C=C1/C(=C\C=C2/CCC[C@@]3(C)C2CC[C@@H]3[C@H](C)CCCC(C)(C)O)C[C@@H](O)[C@@H](OCCCO)[C@@H]1O (stereo partly drawn) [Amor., 1α,25-dihydroxy-2β-(3-hydroxypropoxy)vitamin D3]
HPLC Quantitative Assay (% Survivability) ([2]; 10° C., 1 M (air), dark): 97.4%
HPLC Quantitative Assay (% Survivability) ([2]; 10° C., 1 M, argon, dark): 94.8%
HPLC Quantitative Assay (% Survivability) ([2]; 10° C., 2 W, argon, dark): 98.5%
HPLC Quantitative Assay (% Survivability) ([2]; 10° C., time 0): 100%
HPLC Quantitative Assay (% Survivability) ([2]; 25° C., 1 W, argon, dark): 99.5%
HPLC Quantitative Assay (% Survivability) ([2]; 25° C., 2 W, argon, dark): 94.7%
HPLC Quantitative Assay (% Survivability) ([2]; 25° C., time 0): 100%
HPLC Quantitative Assay (% Survivability) ([2]; 40° C., 1 W, argon, dark): 99.4%
HPLC Quantitative Assay (% Survivability) ([2]; 40° C., 2 W, argon, dark): 88.8%
HPLC Quantitative Assay (% Survivability) ([2]; 40° C., time 0): 100%
